# US20250296929A1, “NOVEL HEPATOSELECTIVE POLYADENYLATING POLYMERASES INHIBITORS AND THEIR METHOD OF USE” (BARUCH S. BLUMBERG INSTITUTE, priority 2021, published 2025)
# Where “and” joins values, the source holds several entries; their conditions need not be identical. Equal entries are not always repeated. Where two headings read alike, the source gives them in different places.
# Experiments:
# [1] = Liver distribution after 8 mg/kg oral dose (liver vs plasma); format: in vivo, CD1 mice
# Method: Protocol for pharmacokinetic and tissue distribution studies. The pharmacokinetics of the compounds was studied in CD1 mice after intravenous (IV) and oral gavage (PO) administration. Mouse PK studies was conducted at 3 mg/kg (IV) and 8 mg/kg (PO). Plasma samples obtained from dosed animals, at ten time points, including 5, 15 and 30 minutes and 1, 1.5, 2, 4, 6, 8 and 24 hr post-dose for processing to plasma, were prepared for analysis by means of a single step protein precipitation technique, by adding 200 μL of acetonitrile containing an IS mixture (labetalol, imipramine and diclofenac) to 50 μL aliquots of individual subject samples. Samples were mixed by vortex for homogeneity and then subjected to centrifugation at 4000 rpm for 10 min. The supernatant (200 μL) was collected and injected into the LC-MS/MS for analysis. Pharmacokinetic parameters will be calculated using established non-compartmental methods. The liver distribution of the compounds was studied in the PO group and liver tissues were collected at each time point after PO administration. Accurately weighed whole liver tissues were collected in a 50 mL tube, and 3 volumes per weight of water will be added. Tissue samples were homogenized and 50 μL of the homogenates will be processed along with plasma samples as described above.
# [2] = system: HBsAg secretion, HBV producing cell line HepG2.2.15; test: Cellular assay: HBsAg inhibition in HBV producing cell line HepG2.2.15; format: cell-based; conditions: Hepatitis B virus
# Method: (§1) Cellular assays method 1: Cellular assays: The HBV producing cell line HepG2.2.15 was cultured in DMEM/F12 containing 10% fetal bovine serum (FBS), 100 U/ml penicillin and 100 μg/ml streptomycin (Invitrogen). Compounds of the disclosure in DMSO was added into the culture medium when cell reached 100% confluence. The final concentration of DMSO was adjusted to 0.5%. Culture medium was replaced in two days and the cell was cultured for additional two days in the presence of compound. HBsAg inhibition in culture medium was then detected with AlphaLisa assay using anti-HBsAg antibodies of 10-H05H and 60C-CR2100RB from Fitzgerald Internantional. To examine the change of nucleic acid, total RNA was extracted with Trizol reagents and resolved in glyoxal agarose gel. HBV RNA blotted onto nitrocellulose membrane was measured with P32 labeled ribo-probe. Reduction and shortening of viral RNA indicates on target effect of the tested compound. […] HepG2.2.15 cells were first seeded in 96-well plate (Corning, Cat #: CLS3595) at density of 10,000 cells/well in 100 ul DMEM/F12 medium containing 10% FBS. When cells reached 100% confluence, treatment with compounds of the disclosure was initiated, and cells were cultured in the way as described for HBsAg inhibition study. Four days post drug treatment, 100 ul of CellTiter-Glo reagents (Promega, Cat #G7570) were added into each well and the mixture was incubated at 23° C. for 12 minutes, followed by the reading of luminescent signal in Tecan's Infinite 200 PRO. Compound IC50 on HBsAg and CC50 on cell viability were calculated using Graphpad prism. The IC50 and CC50 are defined as the compound concentration (or conditioned media log dilution) at which HBsAg secretion and cytotoxicity, respectively, are reduced by 50% compared to the no drug control.
# (§2) Cellular assays method 2: HepG2.2.15 cells were seeded in duplicate into white, 96-well plates at 1.5×10^4 cells/well. The cells were treated with a 3-fold serial dilution series of the compounds in DMSO. The final DMSO concentration in all wells was 1%, and DMSO was used as no drug control. The HBsAg chemiluminescence immunoassay (CLIA) kit (Autobio Diagnostics Co., Zhengzhou, China) was used to measure the levels of secreted HBV antigens semi-quantitatively. For the detection, 50 μL/well culture supernatant was used and the procedure conducted as directed by manufacturer's instructions. The cytotoxicity was measured using CellTiter-Glo (Promega, Madison, WI, USA, catalogue no. G7571). Dose-response curves were generated and the IC50 and CC50 values were calculated using Graphpad prism. The IC50 and CC50 are defined as the compound concentration (or conditioned media log dilution) at which HBsAg secrection and cytotoxicity, respectively, are reduced by 50% compared to the no drug control.
# [3] = Cellular toxicity (CellTiter-Glo) in HepG2.2.15 cells; format: cell-based; conditions: human
# Method: as §1, §2
smiles,measurement,setting,value
"COc1cc2c(cc1OCCCCCCC(=O)O)C[C@@H](C(C)C)n1cc(C(=O)O)c(=O)cc1-2 [Example 6, (S)-9-((6-carboxyhexyl)oxy)-6-isopropyl-10-methoxy-2-oxo-6,7-dihydro-2H-pyrido[2,1-a]isoquinoline-3-carboxylic acid]",Liver concentration,"[1]; 0.25 h, individual animals",428 ng/g and 372 ng/g and 199 ng/g
same,Ratio (liver/plasma),"[1]; 0.25 h, individual animals",41.6 and 19.1 and 10.8
same,Liver concentration,"[1]; 0.5 h, individual animals",241 ng/g and 321 ng/g
same,Ratio (liver/plasma),"[1]; 0.5 h, individual animals",24.3 and 35.6
same,Liver concentration,"[1]; 1 h, individual animals",237 ng/g and 404 ng/g
same,Ratio (liver/plasma),"[1]; 1 h, individual animals",39.9 and 43.6
same,Liver concentration,"[1]; 2 h, individual animals",377 ng/g and 299 ng/g and 108 ng/g
same,Ratio (liver/plasma),"[1]; 2 h, individual animals",65.8 and 47.3
same,Liver concentration,"[1]; 4 h, individual animals",128 ng/g and 179 ng/g
same,Ratio (liver/plasma),"[1]; 4 h, individual animals",42.2 and 43.5
same,Liver concentration,"[1]; 6 h, individual animals",130 ng/g and 43.2 ng/g and 55.6 ng/g
same,Ratio (liver/plasma),"[1]; 6 h, individual animals",28.2 and 23.0
same,Liver concentration,"[1]; 8 h, individual animals",106 ng/g and 37.6 ng/g and 45.6 ng/g
same,Ratio (liver/plasma),"[1]; 8 h, individual animals",17.8
same,concentration at 0.5 h,"[1]; CD1, mouse, liver, oral, 8 mg/kg, 0.5 h, individual animals",366 ng/g
same,concentration at 1 h,"[1]; CD1, mouse, liver, oral, 8 mg/kg, 1 h, individual animals",259 ng/g
same,concentration at 4 h,"[1]; CD1, mouse, liver, oral, 8 mg/kg, 4 h, individual animals",106 ng/g
same,Kp at 0.25 h,"[1]; CD1, mouse, liver/plasma, oral, 8 mg/kg, 0.25 h, mean, read-out: Ratio (liver/plasma) Mean",23.8
same,Kp at 0.5 h,"[1]; CD1, mouse, liver/plasma, oral, 8 mg/kg, 0.5 h, individual animals, read-out: Ratio (liver/plasma)",38.9
same,Kp at 0.5 h,"[1]; CD1, mouse, liver/plasma, oral, 8 mg/kg, 0.5 h, mean, read-out: Ratio (liver/plasma) Mean",32.9
same,Kp at 1 h,"[1]; CD1, mouse, liver/plasma, oral, 8 mg/kg, 1 h, individual animals, read-out: Ratio (liver/plasma)",63.1
same,Kp at 1 h,"[1]; CD1, mouse, liver/plasma, oral, 8 mg/kg, 1 h, mean, read-out: Ratio (liver/plasma) Mean",48.9
same,Kp at 2 h,"[1]; CD1, mouse, liver/plasma, oral, 8 mg/kg, 2 h, individual animals, read-out: Ratio (liver/plasma)",69.6
same,Kp at 2 h,"[1]; CD1, mouse, liver/plasma, oral, 8 mg/kg, 2 h, mean, read-out: Ratio (liver/plasma) Mean",60.9
same,Kp at 4 h,"[1]; CD1, mouse, liver/plasma, oral, 8 mg/kg, 4 h, individual animals, read-out: Ratio (liver/plasma)",28.9
same,Kp at 4 h,"[1]; CD1, mouse, liver/plasma, oral, 8 mg/kg, 4 h, mean, read-out: Ratio (liver/plasma) Mean",38.2
same,Kp at 6 h,"[1]; CD1, mouse, liver/plasma, oral, 8 mg/kg, 6 h, individual animals, read-out: Ratio (liver/plasma)",45.6
same,Kp at 6 h,"[1]; CD1, mouse, liver/plasma, oral, 8 mg/kg, 6 h, mean, read-out: Ratio (liver/plasma) Mean",32.3
same,Kp at 8 h,"[1]; CD1, mouse, liver/plasma, oral, 8 mg/kg, 8 h, individual animals, read-out: Ratio (liver/plasma)",15.9
same,Kp at 8 h,"[1]; CD1, mouse, liver/plasma, oral, 8 mg/kg, 8 h, mean, read-out: Ratio (liver/plasma) Mean",16.8
same,EC50,[2],23 nM
same,CC50,[3],> 10000 nM
